Measured values published in patent US20220218641A1 (Concert Pharmaceuticals, Inc., priority 2019, published 2022).

Tests used:
[1] = Nephrotoxicity of Compound 100 and non-deuterated D-serine at 150 mg/kg PO (Example 3); format: in vivo, male Sprague-Dawley Rats
Source text: (§1) The pharmacokinetic profile of Compound 100 was investigated in male Sprague-Dawley rats compared with that of non-deuterated D-serine. […] Plasma was collected and analyzed for Compound 100 and non-deuterated D-Serine. Additional blood was collected and analyzed for the full clinical chemistry profile.

[2] = Pharmacokinetics of deuterated and non-deuterated D-serine, PO 10 mg/kg (Example 5); format: in vivo, male Sprague Dawley rats
Protocol: Three rats were used for each group. Blood was collected at the following time points: for IV dosing: pre-dose, 0.05, 0.167, 0.5, 1, 2, 4, 6, 8 and 12 hours post-dose; for PO dosing: pre-dose, 0.25, 0.5, 1, 2, 4, 6, 8 and 12 hours post-dose PO. Urine was collected at pre-dose (minimum 12 hours), 0-6, 6-12 and 12-24 hours. Plasma samples were analyzed and quantified for dosed compound LC-MS/MS.

[3] = molecular target: T1, human NMDAR subunits GluN1 and GluN2A (Homo sapiens, UniProt Q05586); experiment: Automated patch clamp (ScreenPatch) NMDA receptor activation in HEK293 cells; format: cell-based; details: 0.003 to 10 μM
T1 construct: expressed in transfected cells; host or cells: HEK293
Protocol: Peak current and steady state current were measured. The activity at the NMDA receptor was indistinguishable for the two compounds.

[4] = Nephrotoxicity comparison, dose escalation 150 mg/kg to 750 mg/kg PO (Example 3, FIGS. 7-10); format: in vivo, rats; details: for BUN / Creatinine: PO doses from 150 mg/kg to 750 mg/kg
[5] = Pharmacokinetic profile of Compound 100 vs non-deuterated D-serine, single 150 mg/kg PO dose (Example 3); format: in vivo, male Sprague-Dawley rats
Source text: as §1

[6] = Pharmacokinetics dose response of non-deuterated D-serine, 30-300 mg/kg PO (Example 4); format: in vivo, male Sprague-Dawley rats
Source text: (§2) The pharmacokinetic profile of non-deuterated D-serine was investigated in male Sprague-Dawley rats. […] Plasma was collected and analyzed for the non-deuterated D-serine. Additional blood was collected and analyzed for the full clinical chemistry profile.

[7] = Nephrotoxicity of non-deuterated D-serine at 300 mg/kg PO: clinical chemistry and urine (Example 2); format: in vivo, Male Sprague-Dawley Rats
Protocol: The hippocampus, cortex and plasma were collected and analyzed. Additional blood was collected and were analyzed for the full clinical chemistry profile. Urine was also collected and examined for glucose and total protein. […] The mean plasma, hippocampus, and cortex concentration at 1 hour are 19200 ng/mL, 674 ng/g, and 754 ng/g; respectively. The mean plasma, hippocampus, and cortex concentrations at 8 hours were 11250 ng/mL, 17725 ng/g, and 11875 ng/g, respectively. […] Blood urea nitrogen and creatinine levels were elevated.

[8] = Nephrotoxicity dose response of non-deuterated D-serine, 30-300 mg/kg PO (Example 4); format: in vivo, male Sprague-Dawley Rats; details: 24 hr samples at the 150 and 300 mg/kg doses, compared to control and reference values
Source text: as §2

[9] = dose escalation 150 mg/kg to 750 mg/kg
[10] = serum, D-serine at 24 hr, Compound 100 at 4, 8 and 24 hours

Structure (SMILES): [2H][C@@](N)(CO)C(=O)O [Compound 100, (2R)-2-amino-2-deutero-3-hydroxy-propanoic acid]
- Levels of biomarkers of nephrotoxicity [1]: did not increase
- Tmax compared with non-deuterated D-serine [2]: similar
- Activity at the NMDA receptor (peak current and steady state current) [3]: indistinguishable
- BUN [4]: minimal changes
- Creatinine [4]: minimal changes
- Exposure as measured by AUC and Cmax, compared with non-deuterated D-serine [4, 9]: greater
- Gross signs of nephrotoxicity [4, 9]: not
- Cmax and AUCinf compared with non-deuterated D-serine [5]: similar

Structure (SMILES): N[C@H](CO)C(=O)O [Non-deuterated D-Serine, D-serine]
- Levels of biomarkers of nephrotoxicity [1]: caused an increase
- Blood urea nitrogen (BUN) level ([1]; serum, D-serine at 8 hr and 24 hr, Compound 100 at 4, 8 and 24 hours): Elevated
- Creatinine level [1, 10]: Elevated
- Gamma glutamyl transferase (GGT) level [1, 10]: Elevated
- AUCinf, multiple of the 30 mg/kg value ([6]; 75 mg/kg PO (2.5× dose)): 2.9×
- Cmax, multiple of the 30 mg/kg value ([6]; 75 mg/kg PO (2.5× dose)): 2.2×
- AUCinf, multiple of the 30 mg/kg value ([6]; 100 mg/kg PO (3.3× dose)): 4.9×
- Cmax, multiple of the 30 mg/kg value ([6]; 100 mg/kg PO (3.3× dose)): 4.0×
- AUCinf, multiple of the 30 mg/kg value ([6]; 150 mg/kg PO (5× dose)): 6.9×
- Cmax, multiple of the 30 mg/kg value ([6]; 150 mg/kg PO (5× dose)): 7.4×
- AUCinf, multiple of the 30 mg/kg value ([6]; 300 mg/kg PO (10× dose)): 18×
- Cmax, multiple of the 30 mg/kg value ([6]; 300 mg/kg PO (10× dose)): 10.7×
- Tmax ([6]; plasma, 150 mg/kg PO): 18 min
- Activity at the NMDA receptor (peak current and steady state current) [3]: indistinguishable
- BUN [4]: increasingly elevated levels
- Creatinine [4]: increasingly elevated levels
- Gross signs of nephrotoxicity [4, 9]: observed
- Blood urea nitrogen level [7]: elevated
- Creatinine level [7]: elevated
- Glucose in urine [7]: observed
- Creatine level [8]: Elevated
- Gamma glutamyl transferase (GGT) level [8]: Elevated
- Urea nitrogen level [8]: Elevated
